This note sets out measurements from patent publication US7608619B2, “Substituted oxazole compounds with analgesic activity” (Gruenenthal GmbH, priority 2005, dated 2009).

For the first experiment, the target named is T1, human μ-opiate receptor (Homo sapiens, UniProt P35372).
T1 construct: purchased Nen company, Zaventem, Belgium RB-HOM; host or cells: CHO-K1 cells (membrane preparation)
T1 sequence (P35372 whole entry): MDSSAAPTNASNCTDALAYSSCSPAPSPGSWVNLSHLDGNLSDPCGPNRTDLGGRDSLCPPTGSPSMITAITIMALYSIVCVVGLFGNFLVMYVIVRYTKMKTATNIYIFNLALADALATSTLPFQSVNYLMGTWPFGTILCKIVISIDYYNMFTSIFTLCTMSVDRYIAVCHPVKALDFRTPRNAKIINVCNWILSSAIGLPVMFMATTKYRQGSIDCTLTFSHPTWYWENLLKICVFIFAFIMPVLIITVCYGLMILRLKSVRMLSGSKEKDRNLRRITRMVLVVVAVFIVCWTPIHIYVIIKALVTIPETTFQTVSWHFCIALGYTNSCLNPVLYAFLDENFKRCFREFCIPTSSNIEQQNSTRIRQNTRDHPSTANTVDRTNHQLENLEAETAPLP
The experiment is described as follows: Affinity for the human μ-opiate receptor ([3H]-naloxone displacement, SPA, CHO-K1 membrane preparation). Particulars: test substance 1 μmole/l; displacement of 1 nmole/l [3H]-naloxone; percentage inhibition of the specific binding. Here is the method: Method for Determining the Affinity for the Human μ-Opiate Receptor
The receptor affinity for the human μ-opiate receptor is determined in a homogeneous batch in microtiter plates. For this purpose dilution series of the substances to be tested are incubated for 90 minutes at room temperature with a receptor membrane preparation (15-40 μg protein/250 μl incubation batch) of CHO-K1 cells, which express the human μ-opiate receptor (RB-HOM receptor membrane preparation from the Nen company, Zaventem, Belgium), in the presence of 1 nmole/l of the radioactive ligand [^3H]-naloxone (NET719, Nen company, Zaventem, Belgium) and 1 mg WGA-SPA beads (wheat germ agglutinin SPA beads from Amersham/Pharmacia, Freiburg, Germany) in a total volume of 250 μl. 50 mmole/l of Tris-HCl supplemented with 0.05% sodium azide and with 0.06% bovine serum albumin is used as incubation buffer. In order to determine the non-specific binding, 25 μmole/l of naloxone is additionally added. After the end of the 90 minutes' incubation time the microtiter plates are centrifuged for 20 minutes at 1000 g and the radioactivity is measured in a beta counter (Microbeta-Trilux, PerkinElmer Wallac, Freiburg, Germany). The percentage displacement of the radioactive ligand from its binding to the human μ-opiate receptor at a concentration of the test substances of 1 μmole/l is determined and is given as percentage inhibition of the specific binding.
As to `CN(CCc1ccccc1)c1oc(C(C2CCC(C(c3ccc(Cl)cc3)N(C)C)CC2)N(C)c2ccccc2)nc1Cc1ccccc1` (stereo not shown) [compound 43, {4-benzyl-2-[{4-[(4-chlorophenyl)-dimethylaminomethyl]-cyclohexyl}-(methylphenylamine)-methyl]-oxazol-5-yl}-methylphenethylamine], the “μ-opioid receptor, % inhibition [1 μM]” value was 72%.
Consider `CCN(CC)c1oc(C(CC2CCC(C(c3ccc(F)cc3)N(C)C)CC2)N(C)c2ccccc2)nc1Cc1ccccc1` (stereo not shown) [compound 103, {4-benzyl-2-[2-{4-[dimethylamino-(4-fluorophenyl)-methyl]-cyclohexyl}-1-(methylphenylamine)-ethyl]-oxazol-5-yl}-diethylamine], for which the “μ-opioid receptor, % inhibition [1 μM]” value amounted to 79%.
For the molecule `CN(Cc1ccccc1)c1oc(C(C2CCC(C(c3ccc(Cl)cc3)N(C)C)CC2)N(C)c2ccccc2)nc1Cc1ccccc1` (stereo not shown) [compound 22, Benzyl-{4-benzyl-2-[{4-[(4-chlorophenyl)-dimethylaminomethyl]-cyclohexyl}-(methylphenylamine)-methyl]-oxazol-5-yl}-methylamine], the “μ-opioid receptor, % inhibition [1 μM]” value is given as 64%.

Still in this experiment, the particulars now being: test substance 1 μmole/l; displacement of 1 nmole/l [3H]-naloxone; percentage inhibition of the specific binding; read-out: μ-opioid receptor, % inhibition [1 μM].
Take `CCN(CC)C(c1nc(Cc2ccccc2)c(N2CCCC(C)C2)o1)C1CCC(C(c2ccc(F)cc2)N(C)C)CC1` (stereo not shown) [compound 36, ([4-benzyl-5-(3-methylpiperidin-1-yl)-oxazol-2-yl]-{4-[dimethylamino-(4-fluorophenyl)-methyl]-cyclohexyl}-methyl)-diethylamine]: the inhibition at 1 µM was 69%.
Turning to `CN(CCc1ccccc1)c1oc(C(C2CCC(C(c3cccs3)N(C)C)CC2)N2CCN(Cc3ccccc3)CC2)nc1Cc1ccccc1` (stereo not shown) [compound 54, (4-benzyl-2-{(4-benzyl-piperazin-1-yl)-[4-(dimethylaminothiophen-2-yl-methyl)-cyclohexyl]-methyl}-oxazol-5-yl)-methyl-phenethylamine], the inhibition at 1 µM is 74%.
With `CC1CCCN(c2oc(C(C3CCC(C(c4ccc(Cl)cc4)N(C)C)CC3)N3CCCCC3)nc2Cc2ccccc2)C1` (stereo not shown) [compound 40, [(4-{[4-benzyl-5-(3-methylpiperidin-1-yl)-oxazol-2-yl]-piperidin-1-yl-methyl}-cyclohexyl)-(4-chlorophenyl)-methyl]-dimethylamine], the inhibition at 1 µM is 60%.
In the case of `CCN(CC)C(CC1CCC(C(c2cccs2)N(C)C)CC1)c1nc(Cc2ccccc2)c(N2CC(C)CC(C)C2)o1` (stereo not shown) [compound 112, {1-[4-benzyl-5-(3,5-dimethylpiperidin-1-yl)-oxazol-2-yl]-2-[4-(dimethylamino-thiophen-2-yl-methyl)-cyclohexyl]-ethyl}-diethylamine], the inhibition at 1 µM came to 89%.
On the same count and under the same terms, the value for `COc1ccc(N2CCN(C(CC3CCC(C(c4cccc(F)c4)N(C)C)CC3)c3nc(Cc4ccccc4)c(N4CCOCC4)o3)CC2)cc1` (stereo not shown) [compound 154, [(4-{2-(4-benzyl-5-morpholin-4-yl-oxazol-2-yl)-2-[4-(4-methoxy-phenyl)-piperazin-1-yl]-ethyl}-cyclohexyl)-(3-fluorophenyl)-methyl]-dimethylamine] was 86%; that for `CN(C)C(c1cccc(F)c1)C1CCC(C(c2nc(Cc3ccccc3)c(N3CCCC3)o2)N2CCc3ccccc3C2)CC1` (stereo not shown) [compound 125, [{4-[(4-benzyl-5-pyrrolidin-1-yl-oxazol-2-yl)-(3,4-dihydro-1H-isoquinolin-2-yl)-methyl]-cyclohexyl}-(3-fluorophenyl)-methyl]-dimethylamine] was 83%.
On the same count and under the same terms, in the case of `CN(CCc1ccccc1)c1oc(C(CC2CCC(C(c3ccc(Cl)cc3)N(C)C)CC2)N2CCN(Cc3ccccc3)CC2)nc1Cc1ccccc1` (stereo not shown) [compound 93, [4-Benzyl-2-(1-(4-benzylpiperazin-1-yl)-2-{4-[(4-chlorophenyl)-dimethylaminomethyl]-cyclohexyl}-ethyl)-oxazol-5-yl]-methylphenethyl-amine] it was 66%.
Same read-out and setting: in the case of `CCN(CC)C(c1nc(Cc2ccccc2)c(N(C)Cc2ccccc2)o1)C1CCC(C(c2cccs2)N(C)C)CC1` (stereo not shown) [compound 30, Benzyl-(4-benzyl-2-{diethylamino-[4-(dimethylaminothiophen-2-yl-methyl)-cyclohexyl]-methyl}-oxazol-5-yl)-methylamine] it was 92%; in that of `COc1ccc(N2CCN(C(c3nc(Cc4ccccc4)c(N4CCCC4)o3)C3CCC(C(c4cccc(F)c4)N(C)C)CC3)CC2)cc1` (stereo not shown) [compound 123, [(4-{(4-benzyl-5-pyrrolidin-1-yl-oxazol-2-yl)-[4-(4-methoxyphenyl)-piperazin-1-yl]-methyl}-cyclohexyl)-(3-fluorophenyl)-methyl]-dimethylamine], 66%.
As to `CCN(CC)C(CC1CCC(C(c2cccs2)N(C)C)CC1)c1nc(Cc2ccccc2)c(N2CCC(Cc3ccccc3)CC2)o1` (stereo not shown) [compound 77, {1-[4-benzyl-5-(4-benzyl-piperidin-1-yl)-oxazol-2-yl]-2-[4-(dimethylamino-thiophen-2-yl-methyl)-cyclohexyl]-ethyl}-diethylamine], the inhibition at 1 µM is 91%.
The same measure, in the same setting: in the case of `CN(Cc1ccccc1)c1oc(C(CC2CCC(C(c3cccs3)N(C)C)CC2)N2CCCCC2)nc1Cc1ccccc1` (stereo not shown) [compound 75, Benzyl-(4-benzyl-2-{2-[4-(dimethylaminothiophen-2-yl-methyl)-cyclohexyl]-1-piperidin-1-yl-ethyl}-oxazol-5-yl)-methylamine] it was 90%; in that of `CN(C)C(c1cccs1)C1CCC(C(c2nc(Cc3ccccc3)c(N3CCOCC3)o2)N2CCOCC2)CC1` (stereo not shown) [compound 139, ({4-[(4-benzyl-5-morpholin-4-yl-oxazol-2-yl)-morpholin-4-yl-methyl]-cyclohexyl}-thiophen-2-yl-methyl)-dimethylamine], 72%.
With `CCN(CC)c1oc(C(CC2CCC(C(c3cccs3)N(C)C)CC2)N(CC)CC)nc1Cc1ccccc1` (stereo not shown) [compound 114, (4-benzyl-2-{1-diethylamino-2-[4-(dimethylaminothiophen-2-yl-methyl)-cyclohexyl]-ethyl}-oxazol-5-yl)-diethylamine], the inhibition at 1 µM amounted to 94%.
Still for that read-out and setting: the value for `CN(C)C(c1ccc(Cl)cc1)C1CCC(CC(c2nc(Cc3ccccc3)c(N3CCN(Cc4ccccc4)CC3)o2)N2CCN(Cc3ccccc3)CC2)CC1` (stereo not shown) [compound 63, [{4-[2-[4-benzyl-5-(4-benzylpiperazin-1-yl)-oxazol-2-yl]-2-(4-benzyl-piperazin-1-yl)-ethyl]-cyclohexyl}-(4-chlorophenyl)-methyl]-dimethylamine] was 78%; that for `CCN(CC)C(CC1CCC(C(c2ccc(Cl)cc2)N(C)C)CC1)c1nc(Cc2ccccc2)c(N2CCC(C)CC2)o1` (stereo not shown) [compound 60, (1-[4-benzyl-5-(4-methylpiperidin-1-yl)-oxazol-2-yl]-2-{4-[(4-chlorophenyl)-dimethylaminomethyl]-cyclohexyl}-ethyl)-diethylamine] was 68%; that for `CN(C)C(c1ccc(Cl)cc1)C1CCC(CC(c2nc(Cc3ccccc3)c(N3CCN(Cc4ccccc4)CC3)o2)N2CCCCC2)CC1` (stereo not shown) [compound 56, [(4-{2-[4-benzyl-5-(4-benzyl-piperazin-1-yl)-oxazol-2-yl]-2-piperidin-1-yl-ethyl}-cyclohexyl)-(4-chlorophenyl)-methyl]-dimethylamine] was 62%.
